According to ChEMBL document CHEMBL4196202, “Discovery and Structure-Based Optimization of Benzimidazole-Derived Activators of SOS1-Mediated Nucleotide Exchange on RAS” (J Med Chem, 2018):
Active and inactive are the calls of the source. The rule behind the calls is not given here.

How the values were obtained:
[1] = biological target: T1, Son of sevenless homolog 1 (Homo sapiens, UniProt Q07889); assay: Binding affinity to human recombinant N-terminal His6-tagged SOS1 (564 to 1049 residues) expressed in BL21-RIL Escherichia coli by fluorescent probe S2 based fluorescence polarization anisotrophy saturation binding assay
T1 sequence (Q07889 whole entry): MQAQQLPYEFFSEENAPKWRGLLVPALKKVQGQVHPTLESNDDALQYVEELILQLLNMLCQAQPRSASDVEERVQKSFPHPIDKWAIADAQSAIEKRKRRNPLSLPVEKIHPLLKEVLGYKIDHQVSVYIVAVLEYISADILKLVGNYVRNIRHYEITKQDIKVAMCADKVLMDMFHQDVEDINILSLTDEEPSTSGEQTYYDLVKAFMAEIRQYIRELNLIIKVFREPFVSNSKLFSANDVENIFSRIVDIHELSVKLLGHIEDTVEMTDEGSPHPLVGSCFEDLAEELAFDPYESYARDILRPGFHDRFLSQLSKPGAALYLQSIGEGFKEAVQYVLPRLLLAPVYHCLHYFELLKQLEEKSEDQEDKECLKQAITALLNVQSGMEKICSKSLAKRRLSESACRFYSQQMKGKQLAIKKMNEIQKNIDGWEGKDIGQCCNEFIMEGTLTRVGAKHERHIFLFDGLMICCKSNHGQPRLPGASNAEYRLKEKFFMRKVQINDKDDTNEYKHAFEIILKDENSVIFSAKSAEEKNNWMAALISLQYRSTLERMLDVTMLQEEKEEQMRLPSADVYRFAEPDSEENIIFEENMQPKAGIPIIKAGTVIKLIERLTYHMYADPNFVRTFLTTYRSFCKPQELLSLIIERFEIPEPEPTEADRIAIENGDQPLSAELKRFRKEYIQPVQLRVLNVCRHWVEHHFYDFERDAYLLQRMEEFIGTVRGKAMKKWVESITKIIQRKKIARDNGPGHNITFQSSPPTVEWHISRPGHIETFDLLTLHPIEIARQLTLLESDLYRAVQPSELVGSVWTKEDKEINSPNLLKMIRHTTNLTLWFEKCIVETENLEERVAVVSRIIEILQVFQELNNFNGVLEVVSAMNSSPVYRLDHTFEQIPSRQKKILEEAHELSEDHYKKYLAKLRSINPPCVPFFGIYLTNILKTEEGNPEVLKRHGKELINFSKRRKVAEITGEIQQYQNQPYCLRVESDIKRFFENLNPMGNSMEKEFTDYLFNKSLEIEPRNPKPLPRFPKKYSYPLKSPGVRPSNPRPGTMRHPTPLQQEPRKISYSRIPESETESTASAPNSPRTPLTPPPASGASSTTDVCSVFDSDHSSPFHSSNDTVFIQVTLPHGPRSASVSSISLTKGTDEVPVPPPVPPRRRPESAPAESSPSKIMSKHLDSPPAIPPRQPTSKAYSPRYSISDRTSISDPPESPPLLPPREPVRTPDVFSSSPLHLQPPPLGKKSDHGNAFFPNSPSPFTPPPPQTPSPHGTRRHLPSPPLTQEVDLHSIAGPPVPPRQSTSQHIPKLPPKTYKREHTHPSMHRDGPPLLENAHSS

[2] = biological target: T2, Son of sevenless homolog 1 (Homo sapiens) (UniProt Q07889); assay: Activation of human recombinant N-terminal His6-tagged SOS1 (564 to 1049 residues) expressed in BL21-RIL Escherichia coli assessed as SOS1-RAS complex formation by measuring exchange of GTP to BODIPY-GDP measured every 3 secs for 30 mins by nucleotide exchange assay relative to control; design: concentration or dose not given beside the values
T2 sequence (whole entry): T1 sequence (Q07889 whole entry)

[3] = biological target: T1, Son of sevenless homolog 1; assay: Activation of human recombinant N-terminal His6-tagged SOS1 (564 to 1049 residues) expressed in BL21-RIL Escherichia coli assessed as SOS1-RAS complex formation by measuring exchange of GTP to BODIPY-GDP measured every 3 secs for 30 mins by nucleotide exchange assay
[4] = biological target: T2, Son of sevenless homolog 1 (Homo sapiens); assay: Biphasic activity at of SOS1 in human HeLa cells expressing wild type KRAS assessed as induction of ERK1/2 T202/Y204 phosphorylation at 1.5 to 100 uM (lower range) incubated for 30 mins by In-cell Western assay; assay type: cell-based
[5] = biological target: Son of sevenless homolog 1 (Homo sapiens, UniProt Q07889); assay: Activation of SOS1 in human NCI-H727 cells expressing KRAS G12V mutant assessed as induction of ERK1/2 T202/Y204 phosphorylation incubated for 30 mins by In-cell Western assay; assay type: cell-based
[6] = biological target: T2, Son of sevenless homolog 1 (Homo sapiens); assay: Biphasic activity at of SOS1 in human HeLa cells expressing wild type KRAS assessed as reduction in ERK1/2 T202/Y204 phosphorylation at 1.5 to 100 uM (higher range) incubated for 30 mins by In-cell Western assay; assay type: cell-based
[7] = biological target: T1, Son of sevenless homolog 1; assay: Activation of SOS1 in human HeLa cells expressing wild type KRAS assessed as induction of ERK1/2 T202/Y204 phosphorylation incubated for 30 mins by In-cell Western assay; assay type: cell-based
[8] = biological target: T2, Son of sevenless homolog 1 (Homo sapiens); assay: Activation of SOS1 in human NCI-H727 cells expressing KRAS G12V mutant assessed as induction of ERK1/2 T202/Y204 phosphorylation at 1.5 to 100 uM (higher range) incubated for 30 mins by In-cell Western assay; assay type: cell-based
[9] = biological target: T2, Son of sevenless homolog 1 (Homo sapiens); assay: Activation of SOS1 in human NCI-H727 cells expressing KRAS G12V mutant assessed as induction of ERK1/2 T202/Y204 phosphorylation at 1.5 to 100 uM (lower range) incubated for 30 mins by In-cell Western assay; assay type: cell-based

Cc1cc(Cn2c(N3CCNCC3)nc3c(-c4ccccc4CO)cc(Cl)cc32)cc(C)c1F
Kd [1]: 0.14 µM

Cc1cc2nc(N3CCNCC3)n(Cc3ccc(C(F)(F)F)cc3)c2cc1C
Activity [2]: 148%
EC50 [3]: 19.6 µM

Cc1cc2nc(N3CCNCC3)n(Cc3ccccc3)c2cc1C
Activity [2]: 122%
EC50 [3]: 8.6 µM

Cc1cc2nc(N3CCNCC3)n(Cc3ccc(F)c(Cl)c3)c2cc1C
Activity [2]: 211%
Activity [4]: Active
EC50 [5]: 29.1 µM
Activity [6]: Active
EC50 [7]: 21.3 µM
Activity [8]: Active
Activity [9]: Active
EC50 [3]: 2.2 µM

Cc1cc2nc(N3CCN(C)CC3)n(Cc3ccc(F)c(Cl)c3)c2cc1C
Activity [2]: 143%
EC50 [3]: 26 µM

Cc1ccc2nc(N3CCNCC3)n(Cc3ccc(F)c(Cl)c3)c2c1
Activity [2]: 106%
EC50 [3]: 2.4 µM

Cc1cc2nc(N3CCNCC3)n(Cc3ccc(F)cc3)c2cc1C
Activity [2]: 130%
EC50 [3]: 5.9 µM

Cc1cc(Cn2c(N3CCNCC3)nc3c(N4CCC[C@H]4CN)cc(Cl)cc32)cc(C)c1F
Activity [4]: Active
EC50 [5]: 7.3 µM
Activity [6]: Active
EC50 [7]: 3.2 µM
Activity [8]: Active
Kd [1]: 0.14 µM
Activity [9]: Active

Fc1ccc(Cn2c(N3CCNCC3)nc3ccc(C(F)(F)F)cc32)cc1Cl
Activity [2]: 78%
EC50 [3]: 4.4 µM

Cc1cc(Cn2c(N3CCNCC3)nc3c(-c4cncnc4)cc(Cl)cc32)cc(C)c1F
Kd [1]: 0.35 µM

Fc1ccc(Cn2c(N3CCNCC3)nc3ccc(Cl)cc32)cc1Cl
Activity [2]: 109%
EC50 [3]: 1 µM

Cc1cc2nc(N3CCNCC3)n(Cc3ccc(Cl)cc3)c2cc1C
Activity [2]: 164%
EC50 [3]: 12.4 µM

Cc1cc2nc(NC3CCNCC3)n(Cc3ccc(F)c(Cl)c3)c2cc1C
Activity [2]: 129%
EC50 [3]: 37.1 µM

Cc1cc(Cn2c(N3CCNCC3)nc3c(-c4cnccn4)cc(Cl)cc32)cc(C)c1F
Kd [1]: 0.39 µM

Cc1cc2nc(N3CCC(N)CC3)n(Cc3ccc(F)c(Cl)c3)c2cc1C
Activity [2]: 114%
EC50 [3]: 6.6 µM

Cc1cc2nc(N3CCNCC3)n(Cc3ccc(F)c(F)c3)c2cc1C
Activity [2]: 183%
EC50 [3]: 5.9 µM

Cc1cc2nc(N3CCCNCC3)n(Cc3ccc(F)c(Cl)c3)c2cc1C
Activity [2]: 176%
EC50 [3]: 8.5 µM

Cc1cc2nc(N3CCNCC3)n(Cc3ccc(F)c(C(F)(F)F)c3)c2cc1C
Activity [2]: 263%
EC50 [3]: 8.1 µM

Cc1cc(Cn2c(N3CCNCC3)nc3c(-c4cccnn4)cc(Cl)cc32)cc(C)c1F
Kd [1]: 0.45 µM

Fc1ccc(Cn2c(N3CCNCC3)nc3ccccc32)cc1Cl
Activity [2]: 109%
Activity [4]: Active
EC50 [5]: 51.4 µM
Activity [6]: inactive
EC50 [7]: 21 µM
Activity [8]: inactive
Activity [9]: Active
EC50 [3]: 5.4 µM

Cc1ccccc1-c1cc(Cl)cc2c1nc(N1CCNCC1)n2Cc1cc(C)c(F)c(C)c1
Kd [1]: 0.21 µM

Cc1cc2nc(NCCN)n(Cc3ccc(F)c(Cl)c3)c2cc1C
Activity [2]: 114%
EC50 [3]: 1.9 µM

Fc1ccc(Cn2c(N3CCNCC3)nc3ccc(Br)cc32)cc1Cl
Activity [2]: 115%
EC50 [3]: 1.3 µM

Cc1cc(Cn2c(N3CCNCC3)nc3c(N4CCOCC4)cc(Cl)cc32)cc(C)c1F
Kd [1]: 0.13 µM

Cc1cc(Cn2c(N3CCNCC3)nc3c(N4CCC[C@@H]4CO)cc(Cl)cc32)cc(C)c1F
Kd [1]: 0.38 µM

Cc1cc2nc(N3CCNCC3)n(Cc3cc(C)c(F)c(C)c3)c2cc1C
Activity [2]: 270%
EC50 [3]: 3.7 µM

Cc1cc2nc(N3CCNCC3)n(Cc3ccc(F)c(Cl)c3)c2cc1Cl
Activity [2]: 200%
EC50 [3]: 3 µM

Cc1cc2c(cc1C)N(Cc1ccccc1)C1=NCCCN12
Activity [2]: 64%
EC50 [3]: 23.2 µM

Cc1cc2ncn(Cc3ccc(F)c(Cl)c3)c2cc1C
EC50 [3]: > 100 µM

Cc1cc2nc(C3CCNCC3)n(Cc3ccc(F)c(Cl)c3)c2cc1C
Activity [2]: 128%
EC50 [3]: 5.6 µM

Cc1cc2nc(N3CCNCC3)n(Cc3ccc(F)c(C)c3)c2cc1C
Activity [2]: 190%
EC50 [3]: 4.1 µM

Cc1cc2nc(N3CCNCC3)n(Cc3ccc(F)c(C4CC4)c3)c2cc1C
Activity [2]: 151%
EC50 [3]: 11.7 µM

Cc1cc(Cn2c(N3CCNCC3)nc3c(-c4cn[nH]c4)cc(Cl)cc32)cc(C)c1F
Kd [1]: 0.18 µM

Cc1cc(Cn2c(N3CCNCC3)nc3c(N4CCC[C@H]4CO)cc(Cl)cc32)cc(C)c1F
Kd [1]: 0.31 µM

Cc1cc(Cn2c(N3CCNCC3)nc3c(-c4cncnc4C(C)C)cc(Cl)cc32)cc(C)c1F
Activity [4]: Active
EC50 [5]: 13.9 µM
Activity [6]: Active
EC50 [7]: 8.8 µM
Activity [8]: Active
Kd [1]: 0.1 µM
Activity [9]: Active

Fc1ccc(CN2C3=NCCCN3c3ccccc32)cc1
Activity [2]: 40%
EC50 [3]: 63 µM

Cc1cc(Cn2c(N3CCNCC3)nc3c(N4CCCCC4)cc(Cl)cc32)cc(C)c1F
Kd [1]: 0.2 µM

Cc1ccc(Cn2c(N3CCNCC3)nc3cc(C)c(C)cc32)cc1
Activity [2]: 93%
EC50 [3]: 36.6 µM

Cc1cc(Cn2c(N3CCNCC3)nc3c(-c4c(C)cccc4C)cc(Cl)cc32)cc(C)c1F
Kd [1]: 0.3 µM

Cc1cc(Cn2c(N3CCNCC3)nc3c(-c4ccncc4)cc(Cl)cc32)cc(C)c1F
Kd [1]: 0.24 µM

Cc1cc(Cn2c(N3CCNCC3)nc3c(N4CCC[C@@H]4CN)cc(Cl)cc32)cc(C)c1F
Kd [1]: 0.24 µM

Fc1ccc(Cn2c(N3CCNCC3)nc3ccc(C4CC4)cc32)cc1Cl
Activity [2]: 65%
EC50 [3]: 24.3 µM
